Data taken from PubChem BioAssay (NCI).
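Grown in 96-well plates, cells were treated for 48 hours with each compound at five concentrations. Insufficient inhibition: endpoint recorded as highest concentration tested. TGI is the concentration that stops growth completely.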

These compounds were tested on MALME-3M melanoma (assay: DTP human tumour cell line panel, 48 h).
With `CC1(C)OC[C@@H](O)[C@H](C#N)CO1` the TGI was > 100 µM.
`CCOc1ccc(/C=C2\N=C(c3ccc([N+](=O)[O-])cc3)OC2=O)cc1` was tested, and the TGI was > 100 µM.
`CSc1cc(-c2cccs2)sc1-c1cc(SC)c(-c2sc(-c3sc(-c4cccs4)cc3SC)cc2SC)s1` was tested, and the TGI was > 100 µM.
In the case of `CCC(C)(C)c1ccc(OCCCCNC(=O)c2ccc3ccccc3c2O)c(C(C)(C)CC)c1`, the TGI was > 100 µM.

The compounds below were run on SF-539 CNS (assay: DTP human tumour cell line panel, 48 h).
With `CN1CCOC1c1ccccc1O` (stereo not drawn) the TGI was > 100 µM.
In the case of `CCNC(=S)NNC(=O)C12CC3CC(CC(C3)C1)C2`, the TGI was > 100 µM.
With `CCN(CC)CCNc1nc(N)c(C#N)c(C#N)c1C#N` the TGI was > 10 µM.
In the case of `CC1(C)OC[C@@H](O)[C@H](C#N)CO1`, the TGI was > 100 µM.
In the case of `CCOc1ccc(/C=C2\N=C(c3ccc([N+](=O)[O-])cc3)OC2=O)cc1`, the TGI was > 100 µM.
With `CSc1cc(-c2cccs2)sc1-c1cc(SC)c(-c2sc(-c3sc(-c4cccs4)cc3SC)cc2SC)s1` the TGI was > 100 µM.
`CCC(C)(C)c1ccc(OCCCCNC(=O)c2ccc3ccccc3c2O)c(C(C)(C)CC)c1` was tested, and the TGI was > 100 µM.

These compounds were tested on SK-MEL-2 melanoma (assay: DTP human tumour cell line panel, 48 h).
For `CN1CCOC1c1ccccc1O` (stereo not drawn), the TGI was > 100 µM.
`CCNC(=S)NNC(=O)C12CC3CC(CC(C3)C1)C2` was tested, and the TGI was > 100 µM.
With `CC1(C)OC[C@@H](O)[C@H](C#N)CO1` the TGI was > 100 µM.
In the case of `CCOc1ccc(/C=C2\N=C(c3ccc([N+](=O)[O-])cc3)OC2=O)cc1`, the TGI was > 100 µM.
For `CSc1cc(-c2cccs2)sc1-c1cc(SC)c(-c2sc(-c3sc(-c4cccs4)cc3SC)cc2SC)s1`, the TGI was > 100 µM.
Work on `CCC(C)(C)c1ccc(OCCCCNC(=O)c2ccc3ccccc3c2O)c(C(C)(C)CC)c1` yielded a TGI of 62 µM.

These compounds were tested on SN12C renal (assay: DTP human tumour cell line panel, 48 h).
For `CCNC(=S)NNC(=O)C12CC3CC(CC(C3)C1)C2`, the TGI was > 100 µM.
In the case of `CCN(CC)CCNc1nc(N)c(C#N)c(C#N)c1C#N`, the TGI was > 10 µM.
With `CC1(C)OC[C@@H](O)[C@H](C#N)CO1` the TGI was > 100 µM.
For `CCOc1ccc(/C=C2\N=C(c3ccc([N+](=O)[O-])cc3)OC2=O)cc1`, the TGI was > 100 µM.
In the case of `CSc1cc(-c2cccs2)sc1-c1cc(SC)c(-c2sc(-c3sc(-c4cccs4)cc3SC)cc2SC)s1`, the TGI was > 100 µM.
For `CCC(C)(C)c1ccc(OCCCCNC(=O)c2ccc3ccccc3c2O)c(C(C)(C)CC)c1`, the TGI was > 100 µM.

These compounds were tested on T-47D breast (assay: DTP human tumour cell line panel, 48 h).
`CN1CCOC1c1ccccc1O` (stereo not drawn) was tested, and the TGI was > 100 µM.
`CCNC(=S)NNC(=O)C12CC3CC(CC(C3)C1)C2` was tested, and the TGI was > 100 µM.
With `CCN(CC)CCNc1nc(N)c(C#N)c(C#N)c1C#N` the TGI was > 10 µM.
In the case of `CC1(C)OC[C@@H](O)[C@H](C#N)CO1`, the TGI was > 100 µM.
In the case of `CCOc1ccc(/C=C2\N=C(c3ccc([N+](=O)[O-])cc3)OC2=O)cc1`, the TGI was > 100 µM.
In the case of `CSc1cc(-c2cccs2)sc1-c1cc(SC)c(-c2sc(-c3sc(-c4cccs4)cc3SC)cc2SC)s1`, the TGI was > 100 µM.
With `CCC(C)(C)c1ccc(OCCCCNC(=O)c2ccc3ccccc3c2O)c(C(C)(C)CC)c1` the TGI was > 100 µM.

Each compound was assayed on MDA-N (assay: DTP human tumour cell line panel, 48 h).
In the case of `CN1CCOC1c1ccccc1O` (stereo not drawn), the TGI was > 100 µM.
With `CCNC(=S)NNC(=O)C12CC3CC(CC(C3)C1)C2` the TGI was > 100 µM.
With `CCN(CC)CCNc1nc(N)c(C#N)c(C#N)c1C#N` the TGI was > 10 µM.
With `CC1(C)OC[C@@H](O)[C@H](C#N)CO1` the TGI was > 100 µM.
`CCOc1ccc(/C=C2\N=C(c3ccc([N+](=O)[O-])cc3)OC2=O)cc1` was tested, and the TGI was > 100 µM.
With `CSc1cc(-c2cccs2)sc1-c1cc(SC)c(-c2sc(-c3sc(-c4cccs4)cc3SC)cc2SC)s1` the TGI was > 100 µM.
In the case of `CCC(C)(C)c1ccc(OCCCCNC(=O)c2ccc3ccccc3c2O)c(C(C)(C)CC)c1`, the TGI was > 100 µM.

Each compound was assayed on UACC-257 melanoma (assay: DTP human tumour cell line panel, 48 h).
`CN1CCOC1c1ccccc1O` (stereo not drawn) was tested, and the TGI was > 100 µM.
In the case of `CCNC(=S)NNC(=O)C12CC3CC(CC(C3)C1)C2`, the TGI was > 100 µM.
`CCN(CC)CCNc1nc(N)c(C#N)c(C#N)c1C#N` was tested, and the TGI was > 10 µM.
With `CC1(C)OC[C@@H](O)[C@H](C#N)CO1` the TGI was > 100 µM.
In the case of `CCOc1ccc(/C=C2\N=C(c3ccc([N+](=O)[O-])cc3)OC2=O)cc1`, the TGI was > 100 µM.
In the case of `CSc1cc(-c2cccs2)sc1-c1cc(SC)c(-c2sc(-c3sc(-c4cccs4)cc3SC)cc2SC)s1`, the TGI was > 100 µM.
With `CCC(C)(C)c1ccc(OCCCCNC(=O)c2ccc3ccccc3c2O)c(C(C)(C)CC)c1` the TGI was > 100 µM.

The compounds below were run on A498 renal (assay: DTP human tumour cell line panel, 48 h).
With `CN1CCOC1c1ccccc1O` (stereo not drawn) the TGI was > 100 µM.
With `CCNC(=S)NNC(=O)C12CC3CC(CC(C3)C1)C2` the TGI was > 100 µM.
`CCN(CC)CCNc1nc(N)c(C#N)c(C#N)c1C#N` was tested, and the TGI was > 10 µM.
For `CC1(C)OC[C@@H](O)[C@H](C#N)CO1`, the TGI was > 100 µM.
`CCOc1ccc(/C=C2\N=C(c3ccc([N+](=O)[O-])cc3)OC2=O)cc1` was tested, and the TGI was > 100 µM.
In the case of `CSc1cc(-c2cccs2)sc1-c1cc(SC)c(-c2sc(-c3sc(-c4cccs4)cc3SC)cc2SC)s1`, the TGI was > 100 µM.
For `CCC(C)(C)c1ccc(OCCCCNC(=O)c2ccc3ccccc3c2O)c(C(C)(C)CC)c1`, the TGI was > 100 µM.

These compounds were tested on A549 NSCLC (assay: DTP human tumour cell line panel, 48 h).
In the case of `CN1CCOC1c1ccccc1O` (stereo not drawn), the TGI was > 100 µM.
With `CCNC(=S)NNC(=O)C12CC3CC(CC(C3)C1)C2` the TGI was > 100 µM.
In the case of `CCN(CC)CCNc1nc(N)c(C#N)c(C#N)c1C#N`, the TGI was > 10 µM.
With `CC1(C)OC[C@@H](O)[C@H](C#N)CO1` the TGI was > 100 µM.
For `CCOc1ccc(/C=C2\N=C(c3ccc([N+](=O)[O-])cc3)OC2=O)cc1`, the TGI was > 100 µM.
With `CSc1cc(-c2cccs2)sc1-c1cc(SC)c(-c2sc(-c3sc(-c4cccs4)cc3SC)cc2SC)s1` the TGI was > 100 µM.
`CCC(C)(C)c1ccc(OCCCCNC(=O)c2ccc3ccccc3c2O)c(C(C)(C)CC)c1` was tested, and the TGI was > 100 µM.

What follows are compounds tested on HL-60(TB) leukemia (assay: DTP human tumour cell line panel, 48 h).
With `CCNC(=S)NNC(=O)C12CC3CC(CC(C3)C1)C2` the TGI was > 100 µM.
`CCN(CC)CCNc1nc(N)c(C#N)c(C#N)c1C#N` was tested, and the TGI was > 10 µM.
For `CC1(C)OC[C@@H](O)[C@H](C#N)CO1`, the TGI was > 100 µM.
In the case of `CCOc1ccc(/C=C2\N=C(c3ccc([N+](=O)[O-])cc3)OC2=O)cc1`, the TGI was > 100 µM.
`CSc1cc(-c2cccs2)sc1-c1cc(SC)c(-c2sc(-c3sc(-c4cccs4)cc3SC)cc2SC)s1` was tested, and the TGI was > 100 µM.
With `CCC(C)(C)c1ccc(OCCCCNC(=O)c2ccc3ccccc3c2O)c(C(C)(C)CC)c1` the TGI was > 100 µM.

The compounds below were run on SW-620 colon (assay: DTP human tumour cell line panel, 48 h).
In the case of `CN1CCOC1c1ccccc1O` (stereo not drawn), the TGI was > 100 µM.
For `CCNC(=S)NNC(=O)C12CC3CC(CC(C3)C1)C2`, the TGI was > 100 µM.
In the case of `CCN(CC)CCNc1nc(N)c(C#N)c(C#N)c1C#N`, the TGI was > 10 µM.
With `CC1(C)OC[C@@H](O)[C@H](C#N)CO1` the TGI was > 100 µM.
In the case of `CCOc1ccc(/C=C2\N=C(c3ccc([N+](=O)[O-])cc3)OC2=O)cc1`, the TGI was > 100 µM.
`CSc1cc(-c2cccs2)sc1-c1cc(SC)c(-c2sc(-c3sc(-c4cccs4)cc3SC)cc2SC)s1` was tested, and the TGI was > 100 µM.
In the case of `CCC(C)(C)c1ccc(OCCCCNC(=O)c2ccc3ccccc3c2O)c(C(C)(C)CC)c1`, the TGI was 87 µM.

Each compound was assayed on IGROV1 ovarian (assay: DTP human tumour cell line panel, 48 h).
`CN1CCOC1c1ccccc1O` (stereo not drawn) was tested, and the TGI was > 100 µM.
For `CCNC(=S)NNC(=O)C12CC3CC(CC(C3)C1)C2`, the TGI was > 100 µM.
`CCN(CC)CCNc1nc(N)c(C#N)c(C#N)c1C#N` was tested, and the TGI was > 10 µM.
With `CCOc1ccc(/C=C2\N=C(c3ccc([N+](=O)[O-])cc3)OC2=O)cc1` the TGI was > 100 µM.
For `CSc1cc(-c2cccs2)sc1-c1cc(SC)c(-c2sc(-c3sc(-c4cccs4)cc3SC)cc2SC)s1`, the TGI was > 100 µM.
With `CCC(C)(C)c1ccc(OCCCCNC(=O)c2ccc3ccccc3c2O)c(C(C)(C)CC)c1` the TGI was > 100 µM.

These compounds were tested on CAKI-1 renal (assay: DTP human tumour cell line panel, 48 h).
For `CN1CCOC1c1ccccc1O` (stereo not drawn), the TGI was > 100 µM.
`CCNC(=S)NNC(=O)C12CC3CC(CC(C3)C1)C2` was tested, and the TGI was > 100 µM.
With `CCN(CC)CCNc1nc(N)c(C#N)c(C#N)c1C#N` the TGI was > 10 µM.
`CC1(C)OC[C@@H](O)[C@H](C#N)CO1` was tested, and the TGI was > 100 µM.
For `CCOc1ccc(/C=C2\N=C(c3ccc([N+](=O)[O-])cc3)OC2=O)cc1`, the TGI was > 100 µM.
`CSc1cc(-c2cccs2)sc1-c1cc(SC)c(-c2sc(-c3sc(-c4cccs4)cc3SC)cc2SC)s1` was tested, and the TGI was > 100 µM.
In the case of `CCC(C)(C)c1ccc(OCCCCNC(=O)c2ccc3ccccc3c2O)c(C(C)(C)CC)c1`, the TGI was > 100 µM.

The compounds below were run on MOLT-4 leukemia (assay: DTP human tumour cell line panel, 48 h).
`CN1CCOC1c1ccccc1O` (stereo not drawn) was tested, and the TGI was > 100 µM.
With `CCNC(=S)NNC(=O)C12CC3CC(CC(C3)C1)C2` the TGI was > 100 µM.
With `CCN(CC)CCNc1nc(N)c(C#N)c(C#N)c1C#N` the TGI was > 10 µM.
`CC1(C)OC[C@@H](O)[C@H](C#N)CO1` was tested, and the TGI was > 100 µM.
`CCOc1ccc(/C=C2\N=C(c3ccc([N+](=O)[O-])cc3)OC2=O)cc1` was tested, and the TGI was > 100 µM.
`CSc1cc(-c2cccs2)sc1-c1cc(SC)c(-c2sc(-c3sc(-c4cccs4)cc3SC)cc2SC)s1` was tested, and the TGI was > 100 µM.
For `CCC(C)(C)c1ccc(OCCCCNC(=O)c2ccc3ccccc3c2O)c(C(C)(C)CC)c1`, the TGI was > 100 µM.

What follows are compounds tested on NCI-H460 lung (assay: DTP human tumour cell line panel, 48 h).
With `CN1CCOC1c1ccccc1O` (stereo not drawn) the TGI was > 100 µM.
For `CCNC(=S)NNC(=O)C12CC3CC(CC(C3)C1)C2`, the TGI was > 100 µM.
In the case of `CCN(CC)CCNc1nc(N)c(C#N)c(C#N)c1C#N`, the TGI was > 10 µM.
For `CC1(C)OC[C@@H](O)[C@H](C#N)CO1`, the TGI was > 100 µM.
For `CCOc1ccc(/C=C2\N=C(c3ccc([N+](=O)[O-])cc3)OC2=O)cc1`, the TGI was > 100 µM.
With `CSc1cc(-c2cccs2)sc1-c1cc(SC)c(-c2sc(-c3sc(-c4cccs4)cc3SC)cc2SC)s1` the TGI was > 100 µM.
`CCC(C)(C)c1ccc(OCCCCNC(=O)c2ccc3ccccc3c2O)c(C(C)(C)CC)c1` was tested, and the TGI was > 100 µM.
